Read-outs that look alike come from different tables or passages of the source.

What all share (assay type): in vivo
Data set [1] concerns MES-induced seizures. Kind of data set: Maximal Electroshock Seizure (MES) test, mice. As to conditions: mice, i.p.; for responders at 30 mg/kg / responders at 100 mg/kg / responders at 300 mg/kg: Mus musculus, ip. From the text:
The MES test is a model for generalized tonic-clonic seizures. The seizures are highly reproducible and electrophysiologically consistent with human seizures. The test provides information about a compound's ability to prevent the spread of seizure when all neuronal circuits of the brain are maximally active. 60 Hz of alternating current (50 mA in mice, 150 mA in rats) is applied for 2 seconds via corneal electrodes that have been treated with an electrolyte solution containing an anesthetic (0.5% tetracaine HCl). Mice are tested at a variety of intervals after an i.p. injection of […] solution of the test compound (commonly in a 0.5% solution of methylcellulose) at 30, 100, and 300 mg/kg doses. Rats are examined after a 30 mg/kg (per os, p.o.) dose that is applied in a volume of 0.04 mL/g. An animal is considered “protected” from MES-induced seizures upon removal of the hind limb extensor component of the seizure.
(§1) Male and female albino CF1 mice (18-25 g, Charles River, Portage, Mich.) and male albino Sprague-Dawley rats (275-300 g, kindling test; 100-150 g all other tests; Charles River, Raleigh, N.C.) were used as experimental animals.
A general note: The maximal electroshock test induces tonic seizures with an electrical stimulus.

Data set [2] concerns metrazole-induced clonic seizures. Kind of data set: Subcutaneous Metrazole Seizure Threshold Test (scMET), mice. As to conditions: mice; for responders at 30 mg/kg / responders at 100 mg/kg / responders at 300 mg/kg: Mus musculus, sc. The protocol: The subcutaneous injection of metrazole, which is a convulsant, produces clonic seizures in laboratory animals. The scMET test is designed to identify compounds that raise the seizure threshold of an animal. Mice are pretreated with test compound at 30, 100, and 300 mg/kg doses in a similar manner to the MES test. Rats are treated with a 50 mg/kg dose (p.o.). At the previously determined TPE of the test compound, the dose of metrazole that will induce convulsions in 97% of animals (CD97: 85 mg/kg mice) is injected into the loose fold of the skin in the midline of the neck. The animals are placed in isolation cages to minimize stress and observed for the next 30 minutes for the presence or absence of seizures. An episode of clonic spasms (approximately 3-5 seconds) of the fore and/or hindlimbs, jaws or vibrissae is taken as the endpoint.
as §1

A short description of data set [3]: Acute toxicity, minimal motor impairment (rotorod), mice. Particulars: mice, rotorod; for TOX 30 0.5 h (animals toxic/tested) / TOX 30 4 h (animals toxic/tested): 30 mg/kg; for TOX 100 0.5 h (animals toxic/tested) / TOX 100 4 h (animals toxic/tested): 100 mg/kg; for TOX 300 0.5 h (animals toxic/tested) / TOX 300 4 h (animals toxic/tested): 300 mg/kg. The protocol: Toxicity was measured using the minimal motor impairment test described below.
Animals are monitored for overt signs of impaired neurological or muscular function to assess a compound's toxicity. In mice, the rotorod procedure is used to disclose minimal muscular or neurological impairment. When a mouse is placed on a rotating rod (6 rpm), the animal can maintain its equilibrium for long periods of time. The animal is considered toxic if it falls off the rotating rod three times during a 1 minute period. In rats, minimal motor deficit is indicated by ataxia, which is manifested by an abnormal, uncoordinated gait.
On the technique in general: Falling from the rotarod earlier than controls is read as motor impairment.

Setting [4] is: 30 mg/kg, 0.5 h, read-out: MES 30 0.5 h (animals protected/tested).
Setting [5] is: 30 mg/kg, 4 h, read-out: MES 30 4 h (animals protected/tested).
Where [6] appears, read: 100 mg/kg, 0.5 h, read-out: MES 100 0.5 h (animals protected/tested).
[7] abbreviates: 100 mg/kg, 4 h, read-out: MES 100 4 h (animals protected/tested).
[8] abbreviates: 300 mg/kg, 0.5 h, read-out: MES 300 0.5 h (animals protected/tested).
Where [9] appears, read: 300 mg/kg, 4 h, read-out: MES 300 4 h (animals protected/tested).
[10] abbreviates: 30 mg/kg, 0.4 h, read-out: scMET 30 0.4 h (animals protected/tested).
Setting [11] is: 30 mg/kg, 0.5 h, read-out: scMET 30 0.5 h (animals protected/tested).
Where [12] appears, read: 100 mg/kg, 0.4 h, read-out: scMET 100 0.4 h (animals protected/tested).
Where [13] appears, read: 100 mg/kg, 0.5 h, read-out: scMET 100 0.5 h (animals protected/tested).
Where [14] appears, read: 300 mg/kg, 0.4 h, read-out: scMET 300 0.4 h (animals protected/tested).
Where [15] appears, read: 300 mg/kg, 0.5 h, read-out: scMET 300 0.5 h (animals protected/tested).

Consider `CCOC(=O)[C@@H]1[C@H]2O[C@@H]3COC(C)(C)O[C@H]3[C@H](OC)[C@H]21` [Compound 9, Ethyl (4aR,5aS,6aS,7R,7aS)-7-methoxy-2.2-dimethylhexahydro-4H-cyclopropa[5,6]pyrano[3,2-d][1,3]dioxine-6-carboxylate], for which the responders at 30 mg/kg in data set [1] (setting [4]), in data set [1] (setting [5]), in data set [2] (setting [10]) and in data set [2] (setting [11]) was 0% throughout. For the same molecule, the responders at 100 mg/kg in data set [1] (setting [6]), in data set [1] (setting [7]), in data set [2] (setting [12]) and in data set [2] (setting [13]) was 0% in each case. Moreover, the responders at 300 mg/kg in data set [1] (setting [8]), in data set [1] (setting [9]), in data set [2] (setting [14]) and in data set [2] (setting [15]) was 0% in each case. Moreover, the “TOX 30 0.5 h (animals toxic/tested)” value in data set [3] was 0/4. The “TOX 30 4 h (animals toxic/tested)” value in data set [3] is on record as 0/2. For the same molecule, the “TOX 100 0.5 h (animals toxic/tested)” value in data set [3] was 0/8. In data set [3], the “TOX 100 4 h (animals toxic/tested)” value is 0/4. Moreover, the “TOX 300 0.5 h (animals toxic/tested)” value in data set [3] is on record as 0/4. Also, in data set [3], the “TOX 300 4 h (animals toxic/tested)” value is recorded as 0/2.

With `COC(=O)C1[C@@H]2[C@@H](O)[C@@H]3OC(C)(C)OC[C@H]3O[C@H]12` (stereo partly drawn) [Compound 10, Methyl (4aR,5aS,6aR,7R,7aS)-7-hydroxy-2,2-dimethylhexahydro-4H-cyclopropa[5,6]pyrano[3,2-d][1,3]dioxine-6-carboxylate], the responders at 30 mg/kg in data set [1] (setting [4]), in data set [1] (setting [5]), in data set [2] (setting [10]) and in data set [2] (setting [11]) was 0% throughout. Moreover, the responders at 100 mg/kg in data set [1] (setting [6]), in data set [1] (setting [7]), in data set [2] (setting [12]) and in data set [2] (setting [13]) was 0% each time. Moreover, the responders at 300 mg/kg in data set [1] (setting [8]), in data set [1] (setting [9]), in data set [2] (setting [14]) and in data set [2] (setting [15]) was 0% each time. In addition, in data set [3], the “TOX 30 0.5 h (animals toxic/tested)” value is on record as 0/4. Also, the “TOX 30 4 h (animals toxic/tested)” value in data set [3] was 0/2. Besides, the “TOX 100 0.5 h (animals toxic/tested)” value in data set [3] was 0/8. Also, the “TOX 100 4 h (animals toxic/tested)” value in data set [3] was 0/4. The “TOX 300 0.5 h (animals toxic/tested)” value in data set [3] is on record as 0/4. In data set [3], the “TOX 300 4 h (animals toxic/tested)” value is on record as 0/2.

`COC(=O)[C@H]1C2O[C@@H]3CO[Si](C(C)(C)C)(C(C)(C)C)O[C@@H]3[C@H](O)[C@@H]21` (stereo partly drawn) [Compound 14b, (1R,1as,2R,2aR,6aR)-4,4-di-tert-butyl-2-hydroxy-hexahydro-3,5,7-trioxa-4-silacyclopropa[b]naphthalene-1-carboxylic acid (S)-methyl ester]: the “MES 30 0.5 h (animals protected/tested)” value in data set [1] (30 mg/kg, 0.5 h) is listed as 0/1. Besides, the “MES 30 4 h (animals protected/tested)” value in data set [1] (30 mg/kg, 4 h) is 0/1. Besides, the “MES 100 0.5 h (animals protected/tested)” value in data set [1] (100 mg/kg, 0.5 h) is recorded as 0/3. For the same molecule, the “MES 100 4 h (animals protected/tested)” value in data set [1] (100 mg/kg, 4 h) is given as 0/3. Besides, the “MES 300 0.5 h (animals protected/tested)” value in data set [1] (300 mg/kg, 0.5 h) is given as 0/1. The “MES 300 4 h (animals protected/tested)” value in data set [1] (300 mg/kg, 4 h) is recorded as 0/1. Moreover, the “scMET 30 0.4 h (animals protected/tested)” value in data set [2] (30 mg/kg, 0.4 h) is on record as 0/1. In data set [2] (30 mg/kg, 0.5 h), the “scMET 30 0.5 h (animals protected/tested)” value is 0/1. The “scMET 100 0.4 h (animals protected/tested)” value in data set [2] (100 mg/kg, 0.4 h) was 0/1. In data set [2] (100 mg/kg, 0.5 h), the “scMET 100 0.5 h (animals protected/tested)” value is 0/1. The “scMET 300 0.4 h (animals protected/tested)” value in data set [2] (300 mg/kg, 0.4 h) is given as 0/1. In addition, in data set [2] (300 mg/kg, 0.5 h), the “scMET 300 0.5 h (animals protected/tested)” value is 0/1. Moreover, in data set [3], the “TOX 30 0.5 h (animals toxic/tested)” value is recorded as 0/4, the “TOX 30 4 h (animals toxic/tested)” value was 0/2, the “TOX 100 0.5 h (animals toxic/tested)” value was 2/8 and the “TOX 100 4 h (animals toxic/tested)” value is listed as 0/4. In data set [3], the “TOX 300 0.5 h (animals toxic/tested)” value is 4/4 and the “TOX 300 4 h (animals toxic/tested)” value is given as 0/2.

In the case of `CCOC(=O)C1[C@@H]2[C@@H](OS(=O)(=O)N(C)C)[C@@H]3O[C@H](c4ccc(OC)cc4)OC[C@H]3O[C@H]12` (stereo partly drawn) [Compound 17a, Ethyl (2R,4aR,5aS,6aS,7R,7aR)-7-[(dimethylsulfamoyl)oxy]-2-(4-methoxyphenyl)hexahydro-4H-cyclopropa[5,6]pyrano[3,2-d][1,3]dioxine-6-carboxylate], the responders at 30 mg/kg in data set [1] (setting [4]), in data set [1] (setting [5]), in data set [2] (setting [10]) and in data set [2] (setting [11]) was 0% throughout. Further, the responders at 100 mg/kg in data set [1] (setting [6]), in data set [1] (setting [7]), in data set [2] (setting [12]) and in data set [2] (setting [13]) was 0% in each case. Moreover, the responders at 300 mg/kg in data set [1] (setting [8]), in data set [1] (setting [9]), in data set [2] (setting [14]) and in data set [2] (setting [15]) was 0% in each case. Moreover, in data set [3], the “TOX 30 0.5 h (animals toxic/tested)” value is 0/4. For the same molecule, in data set [3], the “TOX 30 4 h (animals toxic/tested)” value is 0/2. Further, the “TOX 100 0.5 h (animals toxic/tested)” value in data set [3] is recorded as 0/8. Moreover, the “TOX 100 4 h (animals toxic/tested)” value in data set [3] is 0/4. For the same molecule, the “TOX 300 0.5 h (animals toxic/tested)” value in data set [3] is recorded as 0/4. Moreover, in data set [3], the “TOX 300 4 h (animals toxic/tested)” value is 0/2.

Turning to `CCOC(=O)C1[C@@H]2[C@@H](OC)[C@@H]3O[C@H](c4ccc(OC)cc4)OC[C@H]3O[C@H]12` (stereo partly drawn) [Compound 18, Ethyl (2R,4aR,5aS,6aS,7R,7aS)-7-methoxy-2-(4-methoxyphenyl)hexahydro-4H-cyclopropa[5,6]pyrano[3,2-d][1,3]dioxine-6-carboxylate], the responders at 30 mg/kg in data set [1] (setting [4]), in data set [1] (setting [5]), in data set [2] (setting [10]) and in data set [2] (setting [11]) was 0% throughout. Further, the responders at 100 mg/kg in data set [1] (setting [6]), in data set [1] (setting [7]), in data set [2] (setting [12]) and in data set [2] (setting [13]) was 0% each time. The responders at 300 mg/kg in data set [1] (setting [8]), in data set [1] (setting [9]), in data set [2] (setting [14]) and in data set [2] (setting [15]) was 0% each time. In data set [3], the “TOX 30 0.5 h (animals toxic/tested)” value is reported as 0/4. For the same molecule, the “TOX 30 4 h (animals toxic/tested)” value in data set [3] is on record as 0/2. The “TOX 100 0.5 h (animals toxic/tested)” value in data set [3] was 0/8. In addition, the “TOX 100 4 h (animals toxic/tested)” value in data set [3] is listed as 0/4. Besides, the “TOX 300 0.5 h (animals toxic/tested)” value in data set [3] is given as 0/4. In data set [3], the “TOX 300 4 h (animals toxic/tested)” value is 0/2.
